Experimental data taken from patent publication US12459939B2 (SHANGHAI RINGENE BIOPHARMA CO., LTD., priority 2019, dated 2025).
Read-outs that look alike come from different tables or passages of the source.

Key:
[1] = target: T1, BRD4-BD2 (Homo sapiens, UniProt O60885); experiment: BRD4 AlphaScreen determination (BD2); type: binding
T1 construct: purchased ReactionBiologyCorp; (RBC)
Method: (1) 1× Assay buffer was prepared according to the kit requirements of ReactionBiologyCorp. (RBC). (2) Compound concentration gradient preparation: the test compounds were tested at final concentrations starting at 10 μM, with 10 concentrations at 3-fold dilution and single well test was set for each concentration. The positive control compound(+)-JQ-1 was tested at final concentrations starting at 1 μM, with 10 concentrations at 3-fold dilution, and duplicated well test was set for each concentration. The solution was gradient diluted to the corresponding 1000-fold final concentration in a 384-well Source plate, and then 20 nL of the solution was transferred to the 384-well reaction plate with Echo550 to be measured. 20 nL of 100% DMSO was transferred to the Max well, and the highest concentration of the positive compounds were transferred to the Min wells. […] (6) 5 μL of 4× peptide solution was added to each well of the reaction plate, centrifuged at 1000 rpm for 1 min. (7) 10 μL of the assay solution was added, centrifuged at 1000 rpm for 60 seconds, the solution was mixed with gentle shaking, and incubated at room temperature for 60 minutes. (8) Reading with EnVision. (9) The IC50 values of the compounds for protein binding inhibition was obtained by fitting the dose-effect curve with the analytical software GraphPad Prism 5. (See Table 1 for specific values)

[2] = test system: MV4-11 cells; experiment: Inhibition of proliferation of MV4-11 cells (CellTiter-Glo); type: cell-based; conditions: Homo sapiens, 72 h
Method: Specific experimental steps: 1) Day 0: 96 inoculated cells were digested with trypsin and suspended in cell culture medium, the cell density was detected by an automatic cell counter and the cells were diluted with the culture medium to a suitable density, 100 μL of cell suspension was added to the 96-well plate, and the cell-free medium was used as a control well, and the wells were incubated in a 37° C., 5% CO2 cell incubator overnight; 2) Day 1: A total of 8 concentrations of the compound to be tested in the drug-treated cells were tested at 3-fold dilution, 10 μM was the starting assay concentration of the compound to be tested. Specific steps: 200× compound mother liquor was prepared, the compound was diluted with culture medium to a final concentration of […], that is, 3 μL of 200× compound was added to 197 μL of culture medium, 50 μL diluted compound was added to each well of the 96-well plate, and placed at 37° C., 5% CO2 cell culture incubator for 72 h; 3) Day 4: Cell viability detection: 96-well cell plate was first equilibrated to room temperature, 40 μL of CellTiter-Glo® reagent was added to each well, mixed on a shaker for 2 minutes to fully lyse the cells, incubated at room temperature for 10 minutes to stabilize the luminescence signal, and the luminescence value was read by the Envision microplate reader; 4) data processing was performed by GraphPad Prism 5.0 software to analyze the data, and nonlinear S-curve regression was used to fit the data to obtain a dose-effect curve, and from which the ICso value was calculated. Inhibition rate %=(DMSO treated cell wells−compound treated cell wells)/(DMSO treated cell wells−cell free medium wells)×100. The ICso value was obtained by the four-parameter regression method using the random software in the microplate reader. (See Table 2 for specific values)

[3] = target: T2, CYP1A2 (Homo sapiens, UniProt P05177); experiment: Direct inhibition test (DI test) in human liver microsomes, CYP1A2; type: in vitro ADME; conditions: read-out: inhibitory IC50 on CYP1A2
T2 construct: human liver microsomes (final concentration was 0.2 mg/mL); from tissue; host or cells: human liver microsomes
T2 sequence (P05177 1-516): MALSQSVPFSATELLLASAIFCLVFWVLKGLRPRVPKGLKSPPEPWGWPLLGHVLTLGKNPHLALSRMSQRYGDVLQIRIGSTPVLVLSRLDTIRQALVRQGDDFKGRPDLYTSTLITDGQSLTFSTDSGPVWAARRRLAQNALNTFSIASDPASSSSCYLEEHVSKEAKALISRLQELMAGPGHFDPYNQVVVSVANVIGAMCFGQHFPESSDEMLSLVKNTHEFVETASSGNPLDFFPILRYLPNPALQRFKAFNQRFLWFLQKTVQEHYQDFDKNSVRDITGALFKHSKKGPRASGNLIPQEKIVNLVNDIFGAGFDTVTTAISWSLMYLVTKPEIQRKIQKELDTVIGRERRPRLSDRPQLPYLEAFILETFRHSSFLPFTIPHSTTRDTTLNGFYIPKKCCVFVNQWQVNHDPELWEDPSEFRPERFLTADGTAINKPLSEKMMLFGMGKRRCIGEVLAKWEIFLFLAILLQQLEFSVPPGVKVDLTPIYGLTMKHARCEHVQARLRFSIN
Method: (§1) (2) Direct inhibition test (DI test): 1004 of human liver microsomes (final concentration was 0.2 mg/mL) system was subjected to inhibition incubation directly, the system contains NADPH (final concentration was 1 mM), 10 μM compound, positive inhibitor cocktail (ketoconazole 10 μM, quinidine 10 μM, sulfapyrazole 100 μM, a-naphthoflavone 10 μM, tranylcypromine […]), negative control (0.1% DMSO BPS) and mixed probe substrate (midazolam 1004, testosterone 10004, dextromethorphan 10 μM, diclofenac 20 μM, phenacetin 100 μM, mephenytoin 100 μM), the reaction was terminated after incubation for 20 min. The relative enzyme activity was calculated by measuring the relative production of metabolites.

[4] = target: T3, CYP2C8 (Homo sapiens, UniProt P10632); experiment: Direct inhibition test (DI test) in human liver microsomes, CYP2C8; type: in vitro ADME; conditions: read-out: inhibitory IC50 on CYP 2C8
T3 sequence (P10632 1-490): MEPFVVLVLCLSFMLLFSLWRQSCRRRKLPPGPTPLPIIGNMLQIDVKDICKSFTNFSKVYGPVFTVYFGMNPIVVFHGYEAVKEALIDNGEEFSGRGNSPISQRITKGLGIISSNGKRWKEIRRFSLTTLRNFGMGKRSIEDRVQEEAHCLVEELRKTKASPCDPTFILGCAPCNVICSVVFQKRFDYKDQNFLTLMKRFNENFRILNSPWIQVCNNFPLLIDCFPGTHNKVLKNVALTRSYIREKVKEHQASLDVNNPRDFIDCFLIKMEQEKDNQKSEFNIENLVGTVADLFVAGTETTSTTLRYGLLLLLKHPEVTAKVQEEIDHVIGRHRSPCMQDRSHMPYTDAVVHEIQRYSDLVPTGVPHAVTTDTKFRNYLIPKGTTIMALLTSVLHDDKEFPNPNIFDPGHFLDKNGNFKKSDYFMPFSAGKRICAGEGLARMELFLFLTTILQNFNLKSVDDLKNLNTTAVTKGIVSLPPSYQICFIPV
Method: as §1

[5] = target: T4, CYP3A4 (Homo sapiens, UniProt P08684); experiment: Direct inhibition test (DI test) in human liver microsomes, CYP3A4; type: in vitro ADME; conditions: read-out: inhibitory IC50 on CYP 3A4
T4 construct: human liver microsomes (final concentration was 0.2 mg/mL); from tissue; host or cells: human liver microsomes
Method: as §1

T4 sequence (P08684 whole entry): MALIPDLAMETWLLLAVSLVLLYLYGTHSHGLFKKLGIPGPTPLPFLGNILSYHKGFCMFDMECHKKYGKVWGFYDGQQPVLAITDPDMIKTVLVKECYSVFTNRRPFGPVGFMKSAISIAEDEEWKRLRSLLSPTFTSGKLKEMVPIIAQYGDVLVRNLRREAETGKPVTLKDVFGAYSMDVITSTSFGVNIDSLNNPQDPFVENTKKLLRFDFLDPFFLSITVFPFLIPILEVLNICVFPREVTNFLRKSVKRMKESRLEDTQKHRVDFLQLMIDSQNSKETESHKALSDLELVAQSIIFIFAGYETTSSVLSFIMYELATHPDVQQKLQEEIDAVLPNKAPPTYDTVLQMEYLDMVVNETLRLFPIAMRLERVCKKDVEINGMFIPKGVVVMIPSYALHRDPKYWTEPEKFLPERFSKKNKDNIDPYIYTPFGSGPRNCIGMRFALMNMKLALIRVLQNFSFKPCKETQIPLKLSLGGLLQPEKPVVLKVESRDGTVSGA

| Compound | IC50 [1] | IC50 [2] | IC50 [3] | IC50 at 20 min [4] | IC50 [5] | IC50 ([1]; AlphaScreen, protein binding inhibition, read-out: BRD4-BD2 IC50) |
| --- | --- | --- | --- | --- | --- | --- |
| CCNC(=O)c1cc2c(=O)n(C)cc(-c3cc(C(C)(C)O)ccc3Oc3c(C)cc(F)cc3C)c2[nH]1 [compound 1, reference compound] | 0.65 nM | 2.3 nM | > 15000 nM | > 15000 nM | > 15000 nM | – |
| Cc1cc(F)cc(C)c1Oc1ccc(C(C)(C)O)cc1-c1cn(C)c(=O)c2cc(C(=O)NC3CC(F)(F)C3)[nH]c12 [Embodiment 18, N-(3,3-difluorocyclobutyl)-7-(2-(4-fluoro-2,6-dimethylphenoxy)-5-(2-hydroxyprop-2-yl)phenyl)-5-methyl-4-oxo-4,5-dihydro-1H-pyrrolo[3,2-c] pyridine-2-amide] | – | 10.6 nM | > 15000 nM | > 15000 nM | > 15000 nM | < 0.5 nM |
